For assay [1], the system named is Ba/F3 cells (IL-3 dependent murine pro-B cell line). In words: Proliferation assay (MTT), parental Ba/F3 cells. Type of assay: cell-based. The settings on record: Mus musculus, 48 h, drug concentrations 0.005-10 μM, read-out: BaF3. The protocol:
Interleukin-3 (IL-3) dependent murine pro-B cell line, Ba/F3, and murine myeloid precursor cell line, 32D, were maintained in RPMI-1640 medium supplemented with L-Glutamine, 10% FBS and 10 U/ml recombinant murine IL-3 (Roche). Mo7e human megakarioblastic cell line was grown in RPMI-1640 medium supplemented with L-Glutamine, 20% FBS and 5 ng/ml recombinant human granulocyte macrophage cell stimulating factor (GM-CSF) (R&D Systems) or 200 ng/ml stem cell factor (SCF) (Biosource).
(§1) Cells (0.3-0.6×10^6/ml) were plated in duplicate or triplicate in 96-well plates containing increasing drug concentrations (0.005-10 μM). After incubation at 37° C. in 5% CO2 for 48 h, the effect of the compounds on cell viability was determined by MTT (Promega) colorimetric dye reduction method. Inhibition of cell proliferation was calculated as a percentage of growth of DMSO treated cells, and IC50 values were determined with Microsoft Excel XLfit3.

For assay [2], the target named is Bcr-abl T315I (Ba/F3.p210^T315I cells) (Homo sapiens, UniProt P00519, T315I, cells depend on it). As to the kind of experiment: Proliferation assay (MTT), T315I mutant Bcr-abl expressing Ba/F3 cells. The settings on record: 48 h, drug concentrations 0.005-10 μM. It counts as cell-based, murine.
Source text: (§2) Wild type Bcr-abl expressing 32D (32D.p210) and Ba/F3 (Ba/F3.p210) cells, and mutant Bcr-abl expressing cell lines Ba/F3.p210^G250E, Ba/F3.p210^E255V, Ba/F3.p210^T315I, Ba/F3.p210^F317L and Ba/F3.p210^M351T, as well as Ba/F3 cells transformed with Flt-3-ITD kinase. Additional assays included Ba/F3 cells expressing the fusion protein kinases TEL-PDGFRβ, TEL-JAK1, NPM-ALK, TEL-cKit, Tel-Bmx, Tel-FGR3, Tel-Lck and Ba/F3.TPR-met cells. All the above cell lines were maintained in RPMI-1640 medium with L-Glutamine, 10% FBS and 1 mg/ml geneticin (Gibco).
as §1

The target in assay [3] is Bcr-abl (Ba/F3.p210 cells) (Homo sapiens, UniProt P00519). As to the kind of experiment: Proliferation assay (MTT), wild type Bcr-abl expressing Ba/F3 cells. The following applies: 48 h, drug concentrations 0.005-10 μM. It counts as cell-based, murine.
Source text: as §2, §1

pIC50: −log10 of the molar value. Where only a bound is given, the exact number is not on record here.

Take `CCOC(=O)C1CCCN(C(=O)c2ccc3c(Nc4ccc(OC(F)(F)F)cc4)ncnc3c2)C1` (centres unmarked): the pIC50 in assay [1] was 5.05; in assay [2], less than 5.00; in assay [3] it was 5.26.
As to `Cn1c(CO)cc2c(Nc3ccc(OC(F)(F)F)cc3)ncnc21`, the pIC50 is less than 5.00 in assay [1], less than 5.00 in assay [2] and 6.61 in assay [3].
With `Cn1ccc2c(Nc3ccc(OC(F)(F)F)cc3)ncnc21`, the pIC50 in assay [1] is less than 5.00; in assay [2] it was less than 5.00; in assay [3], 5.16.
In the case of `Cn1c(C(N)=O)cc2c(Nc3ccc(OC(F)(F)F)cc3)ncnc21`, the pIC50 was less than 5.00 in assay [1], less than 5.00 in assay [2] and 6.21 in assay [3].
In the case of `COC1CCN(C(=O)c2ccc3c(Nc4ccc(OC(F)(F)F)cc4)ncnc3c2)CC1`, the pIC50 in assay [1] was less than 5.00; in assay [2], 6.05; in assay [3] it was 6.19.
The matching figures for `CC(C)(C)S(=O)(=O)NC(=O)c1ccc2c(Nc3ccc(OC(F)(F)F)cc3)ncnc2c1`: less than 5.00, less than 5.00 and less than 5.00.
The matching figures for `O=C(c1ccc2c(Nc3ccc(OC(F)(F)F)cc3)ncnc2c1)N1CCC2(CC1)C(=O)NCN2c1ccccc1`: 5.16, 5.08 and 5.83.
The matching figures for `NC(=O)CCn1ccc2c(Nc3ccc(OC(F)(F)F)cc3)ncnc21`: less than 5.00, 5.19 and 6.31.
For `OCc1ccc2c(Nc3ccc(OC(F)(F)F)cc3)ncnc2c1`, the pIC50 was less than 5.00 in assay [1], less than 5.00 in assay [2] and 6.29 in assay [3].
For `Cn1c(C(=O)N2CCC(C(N)=O)CC2)cc2c(Nc3ccc(OC(F)(F)F)cc3)ncnc21`, the pIC50 in assay [1] was less than 5.00; in assay [2] it was less than 5.00; in assay [3], 6.09.
Turning to `CCN(CC)CCCC(C)NC(=O)c1cc2c(Nc3ccc(OC(F)(F)F)cc3)ncnc2n1C` (centres unmarked), the pIC50 in assay [1] is 5.39; in assay [2], 5.40; in assay [3] it was 5.93.
As to `FC(F)(F)Oc1ccc(Nc2ncnc3c2ccn3CCN2CCOCC2)cc1`, the pIC50 in assay [1] is less than 5.00; in assay [2] it was 5.37; in assay [3] it was 6.42.
In the same order, the values of `CNCCN(C)C(=O)c1ccc2c(Nc3ccc(OC(F)(F)F)cc3)ncnc2c1` are less than 5.00, less than 5.00 and 5.22.
Consider `O=C(Nc1cccc(C(F)(F)F)c1)c1ccc2c(Nc3ccc(OC(F)(F)F)cc3)ncnc2c1`, for which the results for the pIC50 in assay [1], in assay [2] and in assay [3] were 5.35, 5.81 and 5.89, respectively.
In the same order, the values of `CCOC(=O)c1cc2c(Nc3ccc(OC(F)(F)F)cc3)ncnc2n1C` are less than 5.00, less than 5.00 and 5.82.
The matching figures for `CCNNC(=O)c1ccc2c(Nc3ccc(OC(F)(F)F)cc3)ncnc2c1`: 5.19, 5.20 and 5.73.
In the same order, the values of `NC(=O)C1CCCN(C(=O)c2ccc3c(Nc4ccc(OC(F)(F)F)cc4)ncnc3c2)C1` (centres unmarked) are less than 5.00, less than 5.00 and 5.51.
For `O=C(c1ccc2c(Nc3ccc(OC(F)(F)F)cc3)ncnc2c1)N1CCCC1CO` (centres unmarked), the figures for the pIC50 in assay [1], in assay [2] and in assay [3] were less than 5.00, less than 5.00 and 5.78, respectively.
In the case of `COCCCNC(=O)c1ccc2c(Nc3ccc(OC(F)(F)F)cc3)ncnc2c1`, the pIC50 is less than 5.00 in assay [1], less than 5.00 in assay [2] and 5.39 in assay [3].
As to `CCNC(=O)CCn1ccc2c(Nc3ccc(OC(F)(F)F)cc3)ncnc21`, the pIC50 in assay [1] was less than 5.00; in assay [2], 5.03; in assay [3], 5.62.
In the case of `CCN1CCCC1NC(=O)c1cc2c(Nc3ccc(OC(F)(F)F)cc3)ncnc2n1C` (centres unmarked), the pIC50 in assay [1] was 5.29; in assay [2] it was 5.07; in assay [3], 5.53.
In the same order, the values of `CC1CN(C(=O)c2ccc3c(Nc4ccc(OC(F)(F)F)cc4)ncnc3c2)CC(C)N1` (centres unmarked) are 5.12, less than 5.00 and 5.67.
For `Cn1c(C(=O)N2CCCC(C(N)=O)C2)cc2c(Nc3ccc(OC(F)(F)F)cc3)ncnc21` (centres unmarked), the pIC50 in assay [1] was less than 5.00; in assay [2] it was less than 5.00; in assay [3], 5.70.
Consider `CC(C)C(CCO)NC(=O)CCn1ccc2c(Nc3ccc(OC(F)(F)F)cc3)ncnc21` (centres unmarked), for which the pIC50 in assay [1] is less than 5.00; in assay [2], 5.68; in assay [3], 6.07.
In the same order, the values of `CCN(CC)C(=O)c1ccc2c(Nc3ccc(OC(F)(F)F)cc3)ncnc2c1` are less than 5.00, 5.50 and 6.13.
The matching figures for `O=C(c1ccc2c(Nc3ccc(OC(F)(F)F)cc3)ncnc2c1)N1CCC(O)C1` (centres unmarked): less than 5.00, less than 5.00 and 5.93.
In the same order, the values of `Cc1ccc(S(=O)(=O)NC(=O)c2ccc3c(Nc4ccc(OC(F)(F)F)cc4)ncnc3c2)cc1` are less than 5.00, less than 5.00 and less than 5.00.
Regarding `COC(=O)c1ccc2c(Nc3ccc(OC(F)(F)F)cc3)ncnc2c1`, the pIC50 in assay [1] was 5.18; in assay [2], 5.72; in assay [3], 6.67.
The matching figures for `O=C(c1ccoc1)N1CCN(C(=O)c2ccc3c(Nc4ccc(OC(F)(F)F)cc4)ncnc3c2)CC1`: less than 5.00, 5.41 and 5.69.
The matching figures for `FC(F)(F)Oc1ccc(Nc2ncnc3[nH]ccc23)cc1`: less than 5.00, less than 5.00 and less than 5.00.
The matching figures for `Cn1c(C(=O)NC(=N)N)cc2c(Nc3ccc(OC(F)(F)F)cc3)ncnc21`: less than 5.00, less than 5.00 and less than 5.00.
For the compound `NC(=O)C1CCCN(c2ncnc(Nc3ccc(OC(F)(F)F)cc3)c2Br)C1` (centres unmarked), the pIC50 in assay [1] and in assay [2] was less than 5.00 throughout.
Consider `CCN(CC)Cc1ccc2c(Nc3ccc(OC(F)(F)F)cc3)ncnc2c1`, for which the pIC50 in assay [1] was less than 5.00; in assay [2], less than 5.00; in assay [3], 5.69.
Regarding `O=C(NC1CCN(Cc2ccccc2)C1)c1cc2c(Nc3ccc(OC(F)(F)F)cc3)ncnc2s1` (centres unmarked), the pIC50 in assay [1] was 6.03; in assay [2], 6.21.
For `O=[N+]([O-])c1cccc(-c2cc(Nc3ccc(OC(F)(F)F)cc3)ncn2)c1`, the pIC50 in assay [1] and in assay [2] was less than 5.00 throughout.
With `Cc1nn(C)c(C)c1-c1cc(Nc2ccc(OC(F)(F)F)cc2)ncn1` [N-(4-(trifluoromethoxy)phenyl)-6-(1,3,5-trimethyl-1H-pyrazol-4-yl)pyrimidin-4-amine], the pIC50 in assay [1] and in assay [2] was less than 5.00 each time.
Turning to `Cc1ccc(NC(=O)c2ccc(CN3CCOCC3)c(C(F)(F)F)c2)cc1Nc1nccn1-c1cc(Nc2ccc(OC(F)(F)F)cc2)ncn1`, the results for the pIC50 in assay [1] and in assay [2] were less than 5.00 and 5.18, respectively.
Turning to `O=Cc1cc(-c2cc(Nc3ccc(OC(F)(F)F)cc3)ncn2)co1`, the results for the pIC50 in assay [1] and in assay [2] were less than 5.00 and 5.42, respectively.
Consider `O=C(CCn1ccc2c(Nc3ccc(OC(F)(F)F)cc3)ncnc21)NCCN1CCOCC1`, for which the pIC50 in assay [1] was less than 5.00; in assay [2], 5.50; in assay [3], 5.97.
`Cc1c(Nc2ccc(OC(F)(F)F)cc2)ncnc1-c1ccc(C(=O)NCCN2CCOCC2)cc1`: the figures for the pIC50 in assay [1] and in assay [2] were 5.42 and 6.09, respectively.
Turning to `O=S(=O)(NCCO)c1ccc(-c2cc(Nc3ccc(OC(F)(F)F)cc3)ncn2)cc1`, the pIC50 in assay [1] is less than 5.00; in assay [2], 5.84.
In the same order, the values of `FC(F)(F)Oc1ccc(Nc2cc(-c3ccnc4[nH]ccc34)ncn2)cc1` are 5.16 and less than 5.00.
`Cc1c(Nc2ccc(OC(F)(F)F)cc2)ncnc1-c1ccc(C(=O)NCCO)cc1`: the results for the pIC50 in assay [1] and in assay [2] were less than 5.00 and 5.33, respectively.
In the same order, the values of `FC(F)(F)Oc1ccc(Nc2cc(-c3ccc(-c4ccccc4)cc3)ncn2)cc1` are less than 5.00 and 5.50.
The matching figures for `CS(=O)(=O)c1ccc(-c2cc(Nc3ccc(OC(F)(F)F)cc3)ncn2)cc1`: less than 5.00 and 5.21.
Regarding `CN(CCO)C(=O)c1ccc2c(Nc3ccc(OC(F)(F)F)cc3)ncnc2c1`, the pIC50 is less than 5.00 in assay [1], less than 5.00 in assay [2] and 5.57 in assay [3].
With `O=C(NCCO)c1ccc2c(Nc3ccc(OC(F)(F)F)cc3)ncnc2c1`, the pIC50 in assay [1] was less than 5.00; in assay [2], less than 5.00; in assay [3], 5.67.
For `Cn1ncc2c(Nc3ccc(OC(F)(F)F)cc3)ncnc21`, the pIC50 in assay [1] and in assay [3] was less than 5.00 each time.
